The values below come from patent US8975398B2, “NAMPT inhibitors” (AbbVie Inc., priority 2012, dated 2015).

The target of one test is NAMPT (Homo sapiens, UniProt P43490). Briefly: Time-Resolved Fluorescence Resonance Energy Transfer (TR-FRET) Binding Assay of NAMPT with PRPP. The settings on record: 2 nM NAMPT, 2 nM probe, 200 uM PRPP and 2.5 mM ATP, equilibrated 16 hours. The procedure:
Time-Resolved Fluorescence Resonance Energy Transfer (TR-FRET) Binding Assay of NAMPT with PRPP
Compound handling and data processing were identical to the assay in the absence of substrates (above). Final concentrations were 1× assay buffer, 2% DMSO, 2 nM NAMPT, 2 nM probe, 1 nM Tb-anti-His antibody (Invitrogen #PV5895), 200 uM PRPP and 2.5 mM ATP. Reactions were equilibrated for 16 hours prior to measurement to allow for potential enzymatic modification of test compounds.
On the technique in general: Time-resolved FRET reads energy transfer from a long-lived donor to a nearby acceptor.

The target in test [1] is NAMPT (human, recombinant, C-terminally His-tagged) (Homo sapiens, UniProt P43490). Nature of the test: Time-Resolved Fluorescence Resonance Energy Transfer (TR-FRET) Binding Assay of NAMPT. Conditions: 6.8 nM NAMPT, 200 nM probe, equilibrated 3 hours, absence of substrates. The procedure:
Determination of the utility of compounds having Formula (I) as binders to and inhibitors of NAMPT was performed using Time-Resolved Fluorescence Resonance Energy Transfer (TR-FRET) binding assays.
Time-Resolved Fluorescence Resonance Energy Transfer (TR-FRET) Binding Assay of NAMPT
Test compounds were serially diluted (typically 11 half log dilutions) in neat DMSO to 50× final concentrations prior to dilution with assay buffer (50 mM HEPES (NaOH), pH 7.5, 100 mM NaCl, 10 mM MgCl2, 1 mM DTT, 1% Glycerol) to 3× and 6% DMSO. Six μL were transferred to 384-well low-volume plates (Owens Corning #3673). To this, 12 μL of a 1.5× solution containing enzyme, probe and antibody were added. Final concentrations in the 18 μL, reactions were 1× assay buffer, 2% DMSO, 6.8 nM NAMPT (human, recombinant, C-terminally His-tagged), 200 nM probe (a potent nicotinamide-competitive inhibitor conjugated to Oregon Green 488) and 1 nM Tb-anti-His antibody (Invitrogen #PV5895). Reactions were equilibrated at room temperature for 3 hours prior to reading on an Envision multi-label plate reader (Perkin Elmer; Ex=337 nm, Em=520 and 495 nm). Time-resolved FRET ratios (Em520/Em495) were normalized to controls, plotted as a function of compound concentration and fit with the four-parameter logistic equation to determine IC50s.

Sequence of NAMPT (P43490 whole entry): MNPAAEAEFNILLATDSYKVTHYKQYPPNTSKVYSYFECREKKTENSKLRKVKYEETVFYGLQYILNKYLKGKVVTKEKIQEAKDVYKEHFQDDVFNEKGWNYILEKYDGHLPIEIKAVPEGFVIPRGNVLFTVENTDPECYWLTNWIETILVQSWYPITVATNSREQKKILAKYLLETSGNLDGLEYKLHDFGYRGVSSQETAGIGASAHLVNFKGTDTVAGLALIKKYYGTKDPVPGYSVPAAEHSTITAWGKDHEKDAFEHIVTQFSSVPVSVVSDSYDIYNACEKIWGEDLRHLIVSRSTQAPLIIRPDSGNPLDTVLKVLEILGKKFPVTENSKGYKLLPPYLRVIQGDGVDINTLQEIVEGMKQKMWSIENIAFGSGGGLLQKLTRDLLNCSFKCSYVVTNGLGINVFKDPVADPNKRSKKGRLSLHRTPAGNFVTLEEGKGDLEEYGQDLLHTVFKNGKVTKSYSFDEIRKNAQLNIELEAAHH
Sequence of NAMPT (human, recombinant, C-terminally His-tagged) (P43490 whole entry): as above

For `O=C(Nc1ccc(OC2CCN(C(=O)CC3CCOCC3)CC2)cc1)C1CN(c2cccnc2)C1` [Example 1, 1-(pyridin-3-yl)-N-(4-{[1-(tetrahydro-2H-pyran-4-ylacetyl)piperidin-4-yl]oxy}phenyl)azetidine-3-carboxamide], the results for the IC50 (on NAMPT; in test [1]) were 0.386 nM and 120 nM, respectively. For `CC(C)(O)C(=O)N1CCC(c2ccc(NC(=O)C3CN(c4cccnc4C#N)C3)cc2)CC1` [Example 2, 1-(2-cyanopyridin-3-yl)-N-{4-[1-(2-hydroxy-2-methylpropanoyl)piperidin-4-yl]phenyl}azetidine-3-carboxamide], the IC50 (usually the concentration needed to halve the response being measured) on NAMPT was 20 nM; in test [1], 22.3 nM. The matching figures for `O=C(Nc1ccc(OC2CCN(C(=O)CC3CCOCC3)CC2)cc1)C1CN(c2cccnc2C(F)(F)F)C1` [Example 3, N-(4-{[1-(tetrahydro-2H-pyran-4-ylacetyl)piperidin-4-yl]oxy}phenyl)-1-[2-(trifluoromethyl)pyridin-3-yl]azetidine-3-carboxamide]: 19.2 nM and 357 nM. Regarding `Cc1ncccc1N1CC(C(=O)Nc2ccc(OC3CCN(C(=O)CC4CCOCC4)CC3)cc2)C1` [Example 4, 1-(2-methylpyridin-3-yl)-N-(4-{[1-(tetrahydro-2H-pyran-4-ylacetyl)piperidin-4-yl]oxy}phenyl)azetidine-3-carboxamide], the IC50 at NAMPT is 24 nM; in test [1] it was 424 nM. The matching figures for `Cc1ccncc1N1CC(C(=O)Nc2ccc(OC3CCN(C(=O)CC4CCOCC4)CC3)cc2)C1` [Example 5, 1-(4-methylpyridin-3-yl)-N-(4-{[1-(tetrahydro-2H-pyran-4-ylacetyl)piperidin-4-yl]oxy}phenyl)azetidine-3-carboxamide]: 10.2 nM and 107 nM. The matching figures for `O=C(Nc1ccc(OC2CCN(C(=O)CC3CCOCC3)CC2)cc1)C1CN(c2cnccc2F)C1` [Example 6, 1-(4-fluoropyridin-3-yl)-N-(4-{[1-(tetrahydro-2H-pyran-4-ylacetyl)piperidin-4-yl]oxy}phenyl)azetidine-3-carboxamide]: 2.34 nM and 544 nM.

As to `O=C(Nc1ccc(OC2CCN(C(=O)CC3CCOCC3)CC2)cc1)C1CN(c2cnccc2C(F)(F)F)C1` [Example 7, N-(4-{[1-(tetrahydro-2H-pyran-4-ylacetyl)piperidin-4-yl]oxy}phenyl)-1-[4-(trifluoromethyl)pyridin-3-yl]azetidine-3-carboxamide], the IC50 at NAMPT stood at 84.7 nM; in test [1], 104 nM.

Take `CC(C)(C)OC(=O)N1CCC(Oc2ccc(NC(=O)[C@H]3CCN(c4cccnc4)C3)cc2)CC1` [Example 8, tert-butyl 4-[4-({[(3S)-1-(pyridin-3-yl)pyrrolidin-3-yl]carbonyl}amino)phenoxy]piperidine-1-carboxylate]: the figures for the IC50 (on NAMPT; in test [1]) were 5.3 nM and 3360 nM, respectively. The matching figures for `CC(C)(C)OC(=O)N1CCC(Oc2ccc(NC(=O)[C@@H]3CCN(c4cccnc4)C3)cc2)CC1` [Example 9, tert-butyl 4-[4-({[(3R)-1-(pyridin-3-yl)pyrrolidin-3-yl]carbonyl}amino)phenoxy]piperidine-1-carboxylate]: 17.2 nM and 8620 nM. The matching figures for `O=C(Nc1ccc(C2CCN(C(=O)[C@@H]3CCCO3)CC2)cc1)C1CN(c2cccnc2)C1` [Example 10, 1-(pyridin-3-yl)-N-(4-{1-[(2S)-tetrahydrofuran-2-ylcarbonyl]piperidin-4-yl}phenyl)azetidine-3-carboxamide]: 0.518 nM and 34.5 nM. For `O=C(Nc1ccc(OC2CCN(C(=O)CC3CCOCC3)CC2)cc1)[C@H]1CCN(c2cccnc2)C1` [Example 11, (3S)-1-(pyridin-3-yl)-N-(4-{[1-(tetrahydro-2H-pyran-4-ylacetyl)piperidin-4-yl]oxy}phenyl)pyrrolidine-3-carboxamide], the IC50 at NAMPT worked out at 1.93 nM; in test [1], 2370 nM. The matching figures for `CC(C)C(=O)N1CCC(Oc2ccc(NC(=O)[C@H]3CCN(c4cccnc4)C3)cc2)CC1` [Example 12, (3S)-N-(4-{[1-(2-methylpropanoyl)piperidin-4-yl]oxy}phenyl)-1-(pyridin-3-yl)pyrrolidine-3-carboxamide]: 2.05 nM and 1410 nM.

For the molecule `O=C(Nc1ccc(OC2CCN(C(=O)[C@@H]3CCCO3)CC2)cc1)[C@H]1CCN(c2cccnc2)C1` [Example 13, (3S)-1-(pyridin-3-yl)-N-[4-({1-[(2S)-tetrahydrofuran-2-ylcarbonyl]piperidin-4-yl}oxy)phenyl]pyrrolidine-3-carboxamide], the values for the IC50 (on NAMPT; in test [1]) were 2.88 nM and 858 nM, respectively. The matching figures for `O=C(Nc1ccc(OC2CCN(C(=O)[C@H]3CCCO3)CC2)cc1)[C@H]1CCN(c2cccnc2)C1` [Example 14, (3S)-1-(pyridin-3-yl)-N-[4-({1-[(2R)-tetrahydrofuran-2-ylcarbonyl]piperidin-4-yl}oxy)phenyl]pyrrolidine-3-carboxamide]: 3.08 nM and 3840 nM. Turning to `O=C(Nc1ccc(OC2CCN(C(=O)C3CCOC3)CC2)cc1)[C@H]1CCN(c2cccnc2)C1` (stereo partly drawn) [Example 15, (3S)-1-(pyridin-3-yl)-N-(4-{[1-(tetrahydrofuran-3-ylcarbonyl)piperidin-4-yl]oxy}phenyl)pyrrolidine-3-carboxamide], the IC50 is 2.49 nM at NAMPT and 1660 nM in test [1]. The matching figures for `O=C(Nc1ccc(OC2CCN(C(=O)CC3CC3)CC2)cc1)[C@H]1CCN(c2cccnc2)C1` [Example 16, (3S)-N-(4-{[1-(cyclopropylacetyl)piperidin-4-yl]oxy}phenyl)-1-(pyridin-3-yl)pyrrolidine-3-carboxamide]: 4.13 nM and 2480 nM. Regarding `CC(C)(O)C(=O)N1CCC(Oc2ccc(NC(=O)[C@H]3CCN(c4cccnc4)C3)cc2)CC1` [Example 17, (3S)-N-(4-{[1-(2-hydroxy-2-methylpropanoyl)piperidin-4-yl]oxy}phenyl)-1-(pyridin-3-yl)pyrrolidine-3-carboxamide], the IC50 was 2.36 nM on NAMPT and 3510 nM in test [1].

For the molecule `O=C(Nc1ccc(OC2CCN(C(=O)CC(F)(F)F)CC2)cc1)[C@H]1CCN(c2cccnc2)C1` [Example 18, (3S)-1-(pyridin-3-yl)-N-(4-{[1-(3,3,3-trifluoropropanoyl)piperidin-4-yl]oxy}phenyl)pyrrolidine-3-carboxamide], the IC50 is 5.32 nM at NAMPT and 2740 nM in test [1]. The matching figures for `CC[C@H](C)C(=O)N1CCC(Oc2ccc(NC(=O)[C@H]3CCN(c4cccnc4)C3)cc2)CC1` [Example 19, (3S)-N-[4-({1-[(2S)-2-methylbutanoyl]piperidin-4-yl}oxy)phenyl]-1-(pyridin-3-yl)pyrrolidine-3-carboxamide]: 0.554 nM and 1170 nM.

As to `CC(C)(O)C(=O)N1CCC(c2ccc(NC(=O)C3CN(c4cccnc4)C3)cc2)CC1` [Example 20, N-{4-[1-(2-hydroxy-2-methylpropanoyl)piperidin-4-yl]phenyl}-1-(pyridin-3-yl)azetidine-3-carboxamide], the values for the IC50 (on NAMPT; in test [1]) were 0.296 nM and 6.74 nM, respectively.

Consider `O=C(NC1CN(c2cccnc2)C1)c1ccc(OC2CCN(C(=O)CC3CCOCC3)CC2)cc1` [Example 21, N-[1-(pyridin-3-yl)azetidin-3-yl]-4-{[1-(tetrahydro-2H-pyran-4-ylacetyl)piperidin-4-yl]oxy}benzamide], for which the IC50 was found to be 0.507 nM on NAMPT and 7380 nM in test [1]. The matching figures for `CC[C@H](C)C(=O)N1CCC(c2ccc(NC(=O)C3CN(c4cccnc4)C3)cc2)CC1` [Example 22, N-(4-{1-[(2S)-2-methylbutanoyl]piperidin-4-yl}phenyl)-1-(pyridin-3-yl)azetidine-3-carboxamide]: 0.169 nM and 11.7 nM.

As to `CC[C@H](C)C(=O)N1CCC(Oc2ccc(C(=O)NC3CN(c4cccnc4)C3)cc2)CC1` [Example 23, 4-({1-[(2S)-2-methylbutanoyl]piperidin-4-yl}oxy)-N-[1-(pyridin-3-yl)azetidin-3-yl]benzamide], the figures for the IC50 (on NAMPT; in test [1]) were 0.61 nM and 1950 nM, respectively. Consider `CC(C)(C)OC(=O)N1CCC(Oc2ccc(C(=O)N[C@H]3CCN(c4cccnc4)C3)cc2)CC1` [Example 27, tert-butyl 4-(4-{[(3S)-1-(pyridin-3-yl)pyrrolidin-3-yl]carbamoyl}phenoxy)piperidine-1-carboxylate], for which the IC50 at NAMPT turned out to be 11.2 nM.

For the molecule `CC(C)(C)OC(=O)N1CCC(Oc2ccc(C(=O)N[C@@H]3CCN(c4cccnc4)C3)cc2)CC1` [Example 28, tert-butyl 4-(4-{[(3R)-1-(pyridin-3-yl)pyrrolidin-3-yl]carbamoyl}phenoxy)piperidine-1-carboxylate], the IC50 on NAMPT came to 2.51 nM.
